Assay [1] deals with bladder overactivity induced by 0.25% acetic acid (AA) irritation. The assay can be described thus: Cystometrogram (CMG) bladder capacity during 0.25% acetic acid (AA) infusion in anesthetized cats, duloxetine / WAY100635 with and without foot stimulation. Type of assay: in vivo, cat. The procedure:
Experiments were performed in a total of 8 adult anesthetized cats (5 female and 3 male cats between 3.1-4.4 kg). Each cat was anesthetized with isoflurane (2-3% in O2) during surgery and then changed to α-chloralose (65 mg/kg, supplemented as necessary) anesthesia during data collection. A pulse oximeter (9847V, Nonin Medical Inc., Plymouth, MN, USA) with the sensor attached to the tongue was used to monitor heart rate and blood oxygen saturation. Catheters were inserted in the right cephalic vein and right carotid artery for intravenous infusion of drugs and monitoring systemic blood pressure, respectively. Airway access was secured with a tracheostomy tube. Ureters were accessed through a midline abdominal incision and drained externally. The bladder was then cannulated with a double lumen catheter through a small cut at the proximal urethra to infuse saline or 0.25% AA and simultaneously measure bladder pressure. The proximal urethra was tied to prevent leakage. Fur was removed from the right hind foot and two self-adhesive pad electrodes (Grass FE10ND, Astro-Medical Inc., Mentor, OH, USA; diameter 1 cm) were attached to the skin at the bottom of the foot. One electrode was at the front of the foot and the other was at the heel (Chen G et al. Post-stimulation inhibitory effect on reflex bladder activity induced by activation of somatic afferent nerves in the foot. J Urol 187: 338-343, 2012; Tai C et al. Suppression of bladder overactivity by activation of somatic afferent nerves in the foot. BJU Int 107: 303-309, 2011).
Uniphasic rectangular pulses (5 Hz frequency, 0.2 ms pulsewidth) were delivered to the surface electrodes on the foot. Stimulation intensity threshold (T) was defined as the minimal intensity to induce a toe twitch. […] BJU Int 107: 303-309, 2011). Initially the bladder capacity was determined during cystometrograms (CMGs) by slowly infusing the bladder with saline. Multiple CMGs were performed to ensure reproducibility of the saline control capacity.
Bladder capacity was defined as the bladder volume threshold required to induce a micturition contraction of large amplitude (>30 cm H2O) and long duration (>20 seconds). Then, repeated CMGs were performed with infusion of 0.25% AA to irritate the bladder, activate nociceptive bladder afferent C-fibers, and induce bladder overactivity. When the bladder capacity stabilized, four CMGs were performed with AA infusion (Infusion rate=2 mL/min) prior to the administration of duloxetine: (1) control without stimulation, (2) during 2 T stimulation, (3) during 4 T stimulation, and (4) control without stimulation to determine any post-stimulation effect. The bladder was emptied at the end of each CMG and a 3-5 minute rest period was inserted between CMGs.
After the pre-drug CMGs were performed, increasing cumulative doses (0.003, 0.01, 0.03, 0.1, 0.3, 1, and 3 mg/kg, i.v.) of duloxetine (Selleck Chemicals, Houston, TX) were given to determine the drug effect on bladder capacity. Ten minutes after administering each dose of duloxetine, the four CMGs were again performed with AA infusion under different conditions (control, 2 T stimulation, 4 T stimulation, and post-stimulation control). The four repeated CMGs were completed within 40-60 minutes. In 4 cats 50-70 minutes after giving the maximal dose of duloxetine (3 mg/kg), WAY100635 (Sigma-Aldrich, St. Louis, MO), a 5HT1A antagonist, was administered (0.5 mg/kg, i.v.) to block 5HT1A inhibitory autoreceptors on serotonergic neurons in the raphe nucleus in an attempt to enhance the serotonergic inhibitory influence of duloxetine on bladder reflexes. Five minutes after administration of WAY100635, we performed control CMGs without stimulation to examine the combined effect of WAY100635 and duloxetine on bladder capacity.
For each CMG, bladder capacity was normalized to the initial saline control capacity in the same animal, which allowed for comparisons between animals.

Assay [2] has the same test system. The assay can be described thus: Cystometrogram (CMG) bladder capacity during 0.25% acetic acid (AA) infusion in anesthetized cats, tolterodine with and without foot stimulation. The following applies: for bladder capacity: AA infusion. In kind it is in vivo, cat. The procedure:
Experiments were conducted in a total of 6 adult cats (4 female and 2 male cats between 2.8-3.8 kg) under achloralose anesthesia (65 mg/kg, supplemented as necessary) after induction with isoflurane (2-3% in O2). Heart rate and blood oxygen level were monitored with a pulse oximeter (9847 V, Nonin Medical Inc., Plymouth, MN, USA) that was attached to the tongue. Systemic blood pressure was monitored via a catheter in the right carotid artery. These physiological parameters were monitored to ensure that the animal's vital functions remained relatively stable during the entire experiment. Drugs or fluids were administered through a catheter in the right cephalic vein and airway access was secured with a tracheostomy tube. Ureters were accessed through a midline abdominal incision and drained externally. The bladder was cannulated through the urethra with a double lumen catheter to infuse (1-2 ml/min) saline or 0.25% acetic acid (AA) via one lumen and measure bladder pressure via another lumen. A ligature was tied around the proximal urethra to prevent leakage. Fur was removed from the foot and two self-adhesive pad electrode (Grass FE10ND, Astro-Medical Inc., Mentor, OH, USA; diameter 1 cm) were attached to the skin at the bottom of the left hind foot. One electrode was at the front of the foot and the other was at the heel.
Uniphasic rectangular pulses (5 Hz frequency, 0.2 ms pulsewidth) were delivered to the skin electrodes on the foot. Threshold (T) stimulation intensity (3-16 V), which was defined as the minimal intensity to induce an observable toe twitch, was determined by slowly increasing the stimulation intensity at the beginning of the experiment. […] The initial bladder capacity was determined during a cystometrogram (CMG) by slowly infusing the bladder with saline. Bladder capacity was defined as the bladder volume threshold to induce a bladder reflex contraction of large amplitude (>30 cm H2O) and long duration (>20 seconds).
Multiple CMGs were performed to determine reproducibility of the saline control capacity. Then, repeated CMGs were performed with AA infusion to irritate the bladder, activate nociceptive bladder C-fiber afferents, and induce bladder overactivity. Once the irritated bladder capacity was stabilized, four CMGs were performed prior to drug administration: 1. control CMG without stimulation; 2. CMG during 2 T stimulation; 3. CMG during 4 T stimulation; and 4. control CMG without stimulation to determine any post-stimulation effect. Increasing cumulative doses of tolterodine (tolterodine L-tartrate, Tocris Bioscience, Bristol, UK) were then administered (0.003, 0.01, 0.03, 0.1, and 0.3 mg/kg, i.v.). Ten minutes after administering each dose of tolterodine, the CMGs were performed again under the four different conditions (control, 2 T stimulation, 4 T stimulation, and post-stimulation control) to determine the drug effect on bladder capacity. The bladder was emptied after each CMG followed by a 3-5 min rest period to allow the distended detrusor to recover.
For the repeated CMG recordings, bladder capacity was normalized to the initial saline control capacity in the same animal to allow comparisons between animals. Capacity measurements under the same conditions were averaged and reported as mean±standard error of the mean (SEM). The mean amplitude of the bladder reflex contraction was also measured during each CMG and normalized to the AA control CMG to determine the effect of tolterodine on detrusor contractility. Statistical significance (p<0.05) was detected by ANOVA followed by Dunnett or Bonferroni post-tests.

Assay [3] shares this test system. The following applies: 0.5168 mg/kg dose alone (references 20, 31, 36); cited from earlier work.

For `CNCC[C@H](Oc1cccc2ccccc12)c1cccs1` [duloxetine], in assay [1] (3 mg/kg i.v., absence of stimulation), the “effect on AA-induced overactivity” value was “completely removed AA-induced overactivity”. Besides, the “post-stimulation effect on bladder capacity” value in assay [1] (after 2 T and 4 T stimulation in duloxetine treated animals) is reported as “absence of a post-stimulation effect”. In addition, the “effect of foot stimulation on capacity when combined with duloxetine” value in assay [1] (after doses 0.003 mg/kg to 0.03 mg/kg i.v.) is recorded as “significantly (p<0.05) increased capacity”; in assay [1] (after doses between 0.1 mg/kg and 3 mg/kg i.v.), “did not significantly increase capacity”. Moreover, the bladder capacity in assay [1] (after final 3 mg/kg dose of duloxetine, before WAY100635, no stimulation, N=4 cats) is on record as 117.3±17.6 % of saline control; in assay [1] (duloxetine 3 mg/kg i.v. (cumulative), AA infusion, absence of stimulation, N=8 cats) it was 109±15.5 % of saline control; in assay [1] (duloxetine 3 mg/kg i.v., AA infusion, during 2 T foot stimulation (5 Hz, 0.2 ms)) it was 129.3±23.2 % of saline control; in assay [1] (duloxetine 3 mg/kg i.v., AA infusion, during 4 T foot stimulation (5 Hz, 0.2 ms)) it was 129.2±25.8 % of saline control. In addition, in assay [1] (doses 0.1-3 mg/kg i.v., absence of stimulation), the “effect on bladder capacity during AA infusion” value is “dose-dependently and significantly (p<0.05) increased bladder capacity”.

`Cc1ccc(O)c([C@H](CCN(C(C)C)C(C)C)c2ccccc2)c1` [tolterodine]: the “effect on control bladder capacity” value in assay [2] (0.1 mg/kg i.v., absence of stimulation) is “not effective in significantly increasing control bladder capacity”. Further, the “amplitude of bladder reflex contractions” value in assay [2] (0.003-0.3 mg/kg i.v., control, 2 T or 4 T foot stimulation CMGs) is “did not alter the amplitude of bladder reflex contractions”. Besides, the “total inhibitory effect of tolterodine combined with foot stimulation” value in assay [2] (2 T and 4 T foot stimulation, every dosage) was “additive”. Moreover, the “post-stimulation effect on bladder capacity” value in assay [2] (after 2 T and 4 T stimulation, every dose of tolterodine) is given as “no post-stimulation effect was observed”. Besides, the “effect on bladder capacity during AA infusion CMGs” value in assay [2] (cumulative doses 0.003-0.3 mg/kg i.v., absence of foot stimulation) was “increased bladder capacity dose dependently”. Also, the bladder capacity was 97.0±11.2 % of saline control in assay [2] (tolterodine 0.1 mg/kg i.v., 4 T foot stimulation); 65.6±15.5 % of the saline control capacity in assay [2] (tolterodine 0.3 mg/kg i.v. (cumulative), absence of foot stimulation, N=6 cats); 86.2±6.2 % of the saline control in assay [2] (tolterodine 0.3 mg/kg i.v., 2 T foot stimulation); 107.9±10.6 % of the saline control in assay [2] (tolterodine 0.3 mg/kg i.v., 4 T foot stimulation). Besides, in assay [2] (tolterodine 0.3 mg/kg i.v., 5.0±1.3 cm H2O before treatment), the “threshold pressure for inducing a micturition reflex” value came out at 8.1±1.4 cm H2O.

For the compound `COc1ccccc1N1CCN(CCN(C(=O)C2CCCCC2)c2ccccn2)CC1` [WAY100635], the “effect of WAY100635 alone on bladder capacity” value in assay [3] is recorded as “does not affect bladder capacity”. The bladder capacity in assay [1] (WAY100635 0.5168 mg/kg i.v. after final 3 mg/kg dose of duloxetine, no stimulation, N=4 cats, p=0.008) is reported as 162.2±22.5 % of saline control.
